# Measurements taken from PMC9532703, “A novel small molecule RK-019 inhibits FGFR2-amplification gastric cancer cell proliferation and induces apoptosis in vitro and in vivo” (Frontiers in Pharmacology, 2022).
# Columns and labels:
# Assay in all cases: Kinase selectivity panel
# Format in all cases: biochemical
# Conditions in all cases: read-out: Inhibition(%) @ 1 µM RK-019
# ATM(h) = molecular target: T1, ATM(h) (Homo sapiens, UniProt Q13315)
# T1 construct: purchased Eurofins Discovery Services (KinaseProfiler)
# T1 sequence (Q13315 whole entry): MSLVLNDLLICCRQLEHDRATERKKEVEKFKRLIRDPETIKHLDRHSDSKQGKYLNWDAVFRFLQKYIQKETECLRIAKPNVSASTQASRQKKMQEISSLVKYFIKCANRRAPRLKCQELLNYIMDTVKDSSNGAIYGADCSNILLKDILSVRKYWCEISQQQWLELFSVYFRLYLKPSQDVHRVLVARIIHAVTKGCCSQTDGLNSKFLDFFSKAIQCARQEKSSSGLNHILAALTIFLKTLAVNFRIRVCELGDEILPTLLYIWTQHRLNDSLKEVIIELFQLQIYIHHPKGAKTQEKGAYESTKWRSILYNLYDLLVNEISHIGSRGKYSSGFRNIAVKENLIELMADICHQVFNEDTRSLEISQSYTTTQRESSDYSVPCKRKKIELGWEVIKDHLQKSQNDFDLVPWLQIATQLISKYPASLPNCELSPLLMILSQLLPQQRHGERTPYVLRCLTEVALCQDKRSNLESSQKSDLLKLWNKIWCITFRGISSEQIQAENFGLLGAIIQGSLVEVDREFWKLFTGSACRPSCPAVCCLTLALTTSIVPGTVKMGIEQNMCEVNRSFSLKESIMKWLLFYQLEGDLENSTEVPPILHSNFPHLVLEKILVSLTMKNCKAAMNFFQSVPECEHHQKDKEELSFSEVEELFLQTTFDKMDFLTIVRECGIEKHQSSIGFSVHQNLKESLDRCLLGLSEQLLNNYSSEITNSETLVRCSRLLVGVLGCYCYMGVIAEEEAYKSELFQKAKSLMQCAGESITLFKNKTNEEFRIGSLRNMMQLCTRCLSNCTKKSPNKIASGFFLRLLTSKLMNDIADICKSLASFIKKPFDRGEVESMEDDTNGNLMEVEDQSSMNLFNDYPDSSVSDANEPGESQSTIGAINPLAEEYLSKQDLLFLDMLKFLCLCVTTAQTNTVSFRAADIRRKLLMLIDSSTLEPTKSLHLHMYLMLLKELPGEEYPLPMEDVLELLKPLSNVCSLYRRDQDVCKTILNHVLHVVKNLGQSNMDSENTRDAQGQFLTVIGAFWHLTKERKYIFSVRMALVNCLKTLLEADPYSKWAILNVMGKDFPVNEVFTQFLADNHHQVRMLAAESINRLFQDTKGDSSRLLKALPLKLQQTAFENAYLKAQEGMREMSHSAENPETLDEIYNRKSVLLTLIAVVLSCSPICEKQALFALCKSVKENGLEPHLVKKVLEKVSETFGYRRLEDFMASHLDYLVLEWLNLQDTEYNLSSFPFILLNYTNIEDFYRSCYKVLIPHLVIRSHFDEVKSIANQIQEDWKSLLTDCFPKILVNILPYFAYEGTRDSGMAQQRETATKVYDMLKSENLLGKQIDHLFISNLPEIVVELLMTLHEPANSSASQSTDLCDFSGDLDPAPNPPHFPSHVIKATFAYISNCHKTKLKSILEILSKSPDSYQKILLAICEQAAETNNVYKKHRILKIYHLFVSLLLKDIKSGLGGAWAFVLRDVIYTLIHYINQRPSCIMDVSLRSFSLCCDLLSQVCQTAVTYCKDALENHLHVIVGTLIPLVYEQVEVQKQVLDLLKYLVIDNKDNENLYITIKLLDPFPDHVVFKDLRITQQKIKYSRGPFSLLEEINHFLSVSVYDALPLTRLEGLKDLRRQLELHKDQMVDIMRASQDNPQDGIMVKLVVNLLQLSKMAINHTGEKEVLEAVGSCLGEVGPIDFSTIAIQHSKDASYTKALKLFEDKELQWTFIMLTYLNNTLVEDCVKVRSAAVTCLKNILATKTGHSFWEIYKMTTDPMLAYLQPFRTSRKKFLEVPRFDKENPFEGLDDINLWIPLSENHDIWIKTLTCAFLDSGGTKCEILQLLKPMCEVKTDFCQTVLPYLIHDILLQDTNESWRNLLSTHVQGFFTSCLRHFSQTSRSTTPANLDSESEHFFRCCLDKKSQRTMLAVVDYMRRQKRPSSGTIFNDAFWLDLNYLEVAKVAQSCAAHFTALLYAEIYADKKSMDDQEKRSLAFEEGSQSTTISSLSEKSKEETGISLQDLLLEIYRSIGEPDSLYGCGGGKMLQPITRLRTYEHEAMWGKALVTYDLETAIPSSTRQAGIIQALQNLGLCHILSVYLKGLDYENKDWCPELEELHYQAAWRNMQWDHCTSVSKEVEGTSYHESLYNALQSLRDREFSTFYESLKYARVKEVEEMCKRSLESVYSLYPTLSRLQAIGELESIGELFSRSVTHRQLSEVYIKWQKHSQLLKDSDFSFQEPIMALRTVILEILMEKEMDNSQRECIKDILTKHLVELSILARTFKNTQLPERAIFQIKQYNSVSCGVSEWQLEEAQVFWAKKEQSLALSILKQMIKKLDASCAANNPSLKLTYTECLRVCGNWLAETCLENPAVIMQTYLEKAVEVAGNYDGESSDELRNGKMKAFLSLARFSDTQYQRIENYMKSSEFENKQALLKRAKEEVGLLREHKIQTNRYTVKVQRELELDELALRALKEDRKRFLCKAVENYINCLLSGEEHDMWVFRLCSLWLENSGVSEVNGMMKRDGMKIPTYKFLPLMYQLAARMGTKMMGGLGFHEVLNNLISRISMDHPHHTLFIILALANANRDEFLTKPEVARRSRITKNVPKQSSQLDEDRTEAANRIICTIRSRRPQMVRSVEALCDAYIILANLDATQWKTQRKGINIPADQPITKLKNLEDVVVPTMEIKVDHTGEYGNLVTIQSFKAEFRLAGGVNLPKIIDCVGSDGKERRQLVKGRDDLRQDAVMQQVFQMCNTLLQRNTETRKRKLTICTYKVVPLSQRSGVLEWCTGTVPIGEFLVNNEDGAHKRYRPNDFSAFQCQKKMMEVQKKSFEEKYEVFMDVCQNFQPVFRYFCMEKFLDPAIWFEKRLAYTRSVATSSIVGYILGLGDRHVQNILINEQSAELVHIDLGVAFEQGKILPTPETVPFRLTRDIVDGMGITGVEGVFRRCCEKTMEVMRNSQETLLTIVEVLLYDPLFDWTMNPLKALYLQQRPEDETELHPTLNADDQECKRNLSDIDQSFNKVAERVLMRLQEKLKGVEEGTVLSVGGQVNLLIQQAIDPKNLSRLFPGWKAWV
# Procedure, shortened: (§1)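 The compound is tested at a fixed 1 µM in an in vitro binding assay based on competition at the ATP site of recombinant human kinase. Inhibition ratio is reported.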
# CDK12/cyclinK(h) = molecular target: T2, CDK12/cyclinK(h) (Homo sapiens, UniProt Q9NYV4)
# T2 construct: purchased Eurofins Discovery Services (KinaseProfiler)
# Procedure, shortened: as §1
# CDKL2(h) = molecular target: T3, CDKL2(h) (Homo sapiens, UniProt Q92772)
# T3 construct: purchased Eurofins Discovery Services (KinaseProfiler)
# T3 sequence (Q92772 whole entry): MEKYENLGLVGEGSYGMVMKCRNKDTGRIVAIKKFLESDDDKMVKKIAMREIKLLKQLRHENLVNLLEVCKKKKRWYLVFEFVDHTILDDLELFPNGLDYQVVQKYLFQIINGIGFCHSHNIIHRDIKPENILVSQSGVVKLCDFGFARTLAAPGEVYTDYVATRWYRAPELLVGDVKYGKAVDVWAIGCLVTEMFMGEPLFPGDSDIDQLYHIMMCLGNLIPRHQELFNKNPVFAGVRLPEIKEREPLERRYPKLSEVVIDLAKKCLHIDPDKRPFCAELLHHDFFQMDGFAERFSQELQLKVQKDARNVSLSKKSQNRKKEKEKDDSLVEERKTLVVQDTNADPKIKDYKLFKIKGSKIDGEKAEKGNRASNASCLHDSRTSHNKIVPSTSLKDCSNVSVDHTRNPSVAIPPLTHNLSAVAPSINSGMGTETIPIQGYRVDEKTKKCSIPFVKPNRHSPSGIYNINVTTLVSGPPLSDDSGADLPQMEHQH
# Procedure, shortened: as §1
# DAPK1(h) = molecular target: T4, DAPK1(h) (Homo sapiens, UniProt P53355)
# T4 construct: purchased Eurofins Discovery Services (KinaseProfiler)
# Procedure, shortened: as §1
# DMPK(h) = molecular target: T5, DMPK(h) (Homo sapiens, UniProt Q09013)
# T5 construct: purchased Eurofins Discovery Services (KinaseProfiler)
# Procedure, shortened: as §1
# EphB4(h) = molecular target: T6, EphB4(h) (Homo sapiens, UniProt P54760)
# T6 construct: purchased Eurofins Discovery Services (KinaseProfiler)
# Procedure, shortened: as §1
# Fer(h) = molecular target: T7, Fer(h) (Homo sapiens, UniProt P16591)
# T7 construct: purchased Eurofins Discovery Services (KinaseProfiler)
# Procedure, shortened: as §1
# GCK(h) = molecular target: T8, GCK(h) (Homo sapiens, UniProt Q12851)
# T8 construct: purchased Eurofins Discovery Services (KinaseProfiler)
# Procedure, shortened: as §1
# GRK2(h) = molecular target: T9, GRK2(h) (Homo sapiens, UniProt P25098)
# T9 construct: purchased Eurofins Discovery Services (KinaseProfiler)
# Procedure, shortened: as §1
# Haspin(h) = molecular target: T10, Haspin(h) (Homo sapiens, UniProt Q8TF76)
# T10 construct: purchased Eurofins Discovery Services (KinaseProfiler)
# Procedure, shortened: as §1
# IGF-1R(h) = molecular target: T11, IGF-1R(h) (Homo sapiens, UniProt P08069)
# T11 construct: purchased Eurofins Discovery Services (KinaseProfiler)
# Procedure, shortened: as §1
# IKKα(h) = molecular target: T12, IKKα(h) (Homo sapiens, UniProt O15111)
# T12 construct: purchased Eurofins Discovery Services (KinaseProfiler)
# Procedure, shortened: as §1
# JNK2α2(h) = molecular target: T13, JNK2α2(h) (Homo sapiens, UniProt P45984)
# T13 construct: purchased Eurofins Discovery Services (KinaseProfiler)
# Procedure, shortened: as §1
# KDR(h) = molecular target: T14, KDR(h) (Homo sapiens, UniProt P35968)
# T14 construct: purchased Eurofins Discovery Services (KinaseProfiler)
# Procedure, shortened: as §1
# LTK(h) = molecular target: T15, LTK(h) (Homo sapiens, UniProt P29376)
# T15 construct: purchased Eurofins Discovery Services (KinaseProfiler)
# Procedure, shortened: as §1
# Lyn(m) = molecular target: T16, Lyn(m) (Mus musculus, UniProt P25911)
# T16 construct: purchased Eurofins Discovery Services (KinaseProfiler)
# MEKK2(h) = molecular target: T17, MEKK2(h) (Homo sapiens, UniProt Q9Y2U5)
# T17 construct: purchased Eurofins Discovery Services (KinaseProfiler)
# Procedure, shortened: as §1
# MKK6(h) = molecular target: T18, MKK6(h) (Homo sapiens, UniProt P52564)
# T18 construct: purchased Eurofins Discovery Services (KinaseProfiler)
# Procedure, shortened: as §1
# Met(Y1248D)(h) = molecular target: T19, Met(Y1248D)(h) (Homo sapiens, UniProt P08581, Y1230D)
# T19 construct: purchased Eurofins Discovery Services (KinaseProfiler)
# Procedure, shortened: as §1
# NEK3(h) = molecular target: T20, NEK3(h) (Homo sapiens, UniProt P51956)
# T20 construct: purchased Eurofins Discovery Services (KinaseProfiler)
# Procedure, shortened: as §1
# NEK4(h) = molecular target: T21, NEK4(h) (Homo sapiens, UniProt P51957)
# T21 construct: purchased Eurofins Discovery Services (KinaseProfiler)
# T21 sequence (P51957 whole entry): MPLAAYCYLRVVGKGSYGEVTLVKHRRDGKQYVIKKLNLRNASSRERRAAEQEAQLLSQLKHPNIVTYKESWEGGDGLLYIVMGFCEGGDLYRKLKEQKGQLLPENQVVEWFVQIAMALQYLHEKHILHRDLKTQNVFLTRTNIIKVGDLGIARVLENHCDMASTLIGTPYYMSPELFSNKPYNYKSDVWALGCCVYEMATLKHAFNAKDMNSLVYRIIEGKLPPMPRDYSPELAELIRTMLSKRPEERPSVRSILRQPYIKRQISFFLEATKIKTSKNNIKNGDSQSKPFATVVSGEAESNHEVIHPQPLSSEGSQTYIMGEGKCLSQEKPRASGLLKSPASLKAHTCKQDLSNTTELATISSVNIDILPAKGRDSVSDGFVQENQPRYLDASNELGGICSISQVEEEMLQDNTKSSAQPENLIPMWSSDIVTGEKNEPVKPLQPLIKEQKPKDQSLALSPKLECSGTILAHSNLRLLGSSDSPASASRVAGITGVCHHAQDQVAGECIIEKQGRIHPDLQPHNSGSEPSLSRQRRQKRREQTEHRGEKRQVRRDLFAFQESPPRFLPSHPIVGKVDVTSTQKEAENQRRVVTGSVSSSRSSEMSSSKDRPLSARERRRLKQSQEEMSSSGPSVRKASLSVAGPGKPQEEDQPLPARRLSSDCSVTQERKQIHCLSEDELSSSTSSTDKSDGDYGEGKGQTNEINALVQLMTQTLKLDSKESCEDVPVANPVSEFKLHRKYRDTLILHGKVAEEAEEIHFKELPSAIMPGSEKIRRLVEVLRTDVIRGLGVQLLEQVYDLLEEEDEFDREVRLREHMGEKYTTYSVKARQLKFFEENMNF
# Procedure, shortened: as §1
# NEK7(h) = molecular target: T22, NEK7(h) (Homo sapiens, UniProt Q8TDX7)
# T22 construct: purchased Eurofins Discovery Services (KinaseProfiler)
# Procedure, shortened: as §1
# NIM1(h) = molecular target: T23, NIM1(h) (Homo sapiens, UniProt Q8IY84)
# T23 construct: purchased Eurofins Discovery Services (KinaseProfiler)
# Procedure, shortened: as §1
# PAK2(h) = molecular target: T24, PAK2(h) (Homo sapiens, UniProt Q13177)
# T24 construct: purchased Eurofins Discovery Services (KinaseProfiler)
# Procedure, shortened: as §1
# [1] = molecular target: T25, PI3 Kinase (p110a(H1047R)/p85a)(m) (Mus musculus, UniProt P42337, H1047R)
# T25 construct: purchased Eurofins Discovery Services (KinaseProfiler)
# PI3 Kinase (p120g)(h) = molecular target: T26, PI3 Kinase (p120g)(h) (Homo sapiens, UniProt P48736)
# T26 construct: purchased Eurofins Discovery Services (KinaseProfiler)
# Procedure, shortened: as §1
# PIP5K1a(h) = molecular target: T27, PIP5K1a(h) (Homo sapiens, UniProt Q99755)
# T27 construct: purchased Eurofins Discovery Services (KinaseProfiler)
# Procedure, shortened: as §1
# PKD3(h) = molecular target: T28, PKD3(h) (Homo sapiens, UniProt O94806)
# T28 construct: purchased Eurofins Discovery Services (KinaseProfiler)
# Procedure, shortened: as §1
# PRK2(h) = molecular target: T29, PRK2(h) (Homo sapiens, UniProt Q16513)
# T29 construct: purchased Eurofins Discovery Services (KinaseProfiler)
# Procedure, shortened: as §1
# PrKX(h) = molecular target: T30, PrKX(h) (Homo sapiens, UniProt P51817)
# T30 construct: purchased Eurofins Discovery Services (KinaseProfiler)
# Procedure, shortened: as §1
# Pyk2(h) = molecular target: T31, Pyk2(h) (Homo sapiens, UniProt Q14289)
# T31 construct: purchased Eurofins Discovery Services (KinaseProfiler)
# Procedure, shortened: as §1
# Ros(h) = molecular target: T32, Ros(h) (Homo sapiens, UniProt P08922)
# T32 construct: purchased Eurofins Discovery Services (KinaseProfiler)
# Procedure, shortened: as §1
# SNRK(h) = molecular target: T33, SNRK(h) (Homo sapiens, UniProt Q9NRH2)
# T33 construct: purchased Eurofins Discovery Services (KinaseProfiler)
# Procedure, shortened: as §1
# TGFBR1(h) = molecular target: T34, TGFBR1(h) (Homo sapiens, UniProt P36897)
# T34 construct: purchased Eurofins Discovery Services (KinaseProfiler)
# T34 sequence (P36897 34-503): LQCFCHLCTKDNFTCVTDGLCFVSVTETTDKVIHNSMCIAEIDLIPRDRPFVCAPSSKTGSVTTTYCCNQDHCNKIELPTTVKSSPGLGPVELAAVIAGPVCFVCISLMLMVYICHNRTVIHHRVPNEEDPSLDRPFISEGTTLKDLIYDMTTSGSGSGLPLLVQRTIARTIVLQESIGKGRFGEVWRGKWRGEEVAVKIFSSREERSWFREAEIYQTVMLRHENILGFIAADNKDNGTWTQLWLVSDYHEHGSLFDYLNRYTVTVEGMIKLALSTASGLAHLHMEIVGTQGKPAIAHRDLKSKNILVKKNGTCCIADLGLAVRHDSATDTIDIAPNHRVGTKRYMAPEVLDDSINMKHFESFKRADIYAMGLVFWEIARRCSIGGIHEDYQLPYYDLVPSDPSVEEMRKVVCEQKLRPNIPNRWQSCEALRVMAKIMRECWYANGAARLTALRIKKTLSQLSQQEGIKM
# Procedure, shortened: as §1
# TrkC(h) = molecular target: T35, TrkC(h) (Homo sapiens, UniProt Q16288)
# T35 construct: purchased Eurofins Discovery Services (KinaseProfiler)
# Procedure, shortened: as §1
# ULK1(h) = molecular target: T36, ULK1(h) (Homo sapiens, UniProt O75385)
# T36 construct: purchased Eurofins Discovery Services (KinaseProfiler)
# Procedure, shortened: as §1
# WNK2(h) = molecular target: T37, WNK2(h) (Homo sapiens, UniProt Q9Y3S1)
# T37 construct: purchased Eurofins Discovery Services (KinaseProfiler)
# Procedure, shortened: as §1
smiles,measurement,setting,value
"COc1cc(OC)cc(N(CCN[C@H](C)CO)c2ccc3ncc(-c4cnn(C)c4)c(=O)n3c2)c1 [RK-019, (R)-7-((3,5-dimethoxyphenyl) (2-((1-hydroxypropan-2-yl)amino)ethyl)amino)-3-(1-methyl-1H-pyrazol-4-yl)-4H-pyrido [1,2-a]pyrimidin-4-one]",activity at 1 µM,ATM(h),105%
same,activity at 1 µM,CDK12/cyclinK(h),109%
same,activity at 1 µM,CDKL2(h),110%
same,activity at 1 µM,DAPK1(h),100%
same,activity at 1 µM,DMPK(h),98%
same,activity at 1 µM,EphB4(h),109%
same,activity at 1 µM,Fer(h),127%
same,activity at 1 µM,GCK(h),98%
same,activity at 1 µM,GRK2(h),103%
same,activity at 1 µM,Haspin(h),105%
same,activity at 1 µM,IGF-1R(h),104%
same,activity at 1 µM,IKKα(h),100%
same,activity at 1 µM,JNK2α2(h),99%
same,activity at 1 µM,KDR(h),9%
same,activity at 1 µM,LTK(h),101%
same,activity at 1 µM,Lyn(m),23%
same,activity at 1 µM,MEKK2(h),96%
same,activity at 1 µM,MKK6(h),83%
same,activity at 1 µM,Met(Y1248D)(h),103%
same,activity at 1 µM,NEK3(h),87%
same,activity at 1 µM,NEK4(h),109%
same,activity at 1 µM,NEK7(h),99%
same,activity at 1 µM,NIM1(h),103%
same,activity at 1 µM,PAK2(h),98%
same,activity at 1 µM,[1],100%
same,activity at 1 µM,PI3 Kinase (p120g)(h),102%
same,activity at 1 µM,PIP5K1a(h),103%
same,activity at 1 µM,PKD3(h),99%
same,activity at 1 µM,PRK2(h),106%
same,activity at 1 µM,PrKX(h),98%
same,activity at 1 µM,Pyk2(h),112%
same,activity at 1 µM,Ros(h),101%
same,activity at 1 µM,SNRK(h),92%
same,activity at 1 µM,TGFBR1(h),83%
same,activity at 1 µM,TrkC(h),86%
same,activity at 1 µM,ULK1(h),105%
same,activity at 1 µM,WNK2(h),103%
